Measured values as given in ChEMBL document CHEMBL4024727, “Synthesis and antimycobacterial screening of new thiazolyl-oxazole derivatives” (Eur J Med Chem, 2017).

Experiments:
Assay type in all cases: functional
Pseudomonas fluorescens [1] = assay: Growth inhibition of Pseudomonas fluorescens NCIM 2059 at 30 ug/ml measured after 8 hrs relative to control; settings: NCIM 2059, 8 h, read-out: GI
Escherichia coli [2] = assay: Growth inhibition of Escherichia coli NCIM 2576 at 30 ug/ml measured after 8 hrs relative to control; settings: NCIM 2576, 8 h, read-out: GI
Staphylococcus aureus [3] = assay: Growth inhibition of Staphylococcus aureus NCIM 2602 at 1 ug/ml measured after 12 hrs relative to control; settings: NCIM 2602, 12 h, read-out: GI
[4] = tested on: Mycobacterium tuberculosis; assay: Growth inhibition of Mycobacterium bovis BCG ATCC 35743 at 30 ug/ml by nitrate reductase based two-fold dilution assay relative to control; settings: BCG str. ATCC 35743, read-out: GI
Escherichia coli [5] = assay: Growth inhibition of Escherichia coli NCIM 2576 at 1 ug/ml measured after 8 hrs relative to control; settings: NCIM 2576, 8 h, read-out: GI
Bacillus subtilis [6] = assay: Antibacterial activity against Bacillus subtilis NCIM 2162 measured after 12 hrs; settings: NCIM 2162, 12 h
[7] = tested on: Mycobacterium tuberculosis; assay: Growth inhibition of Mycobacterium bovis BCG ATCC 35743 at 1 ug/ml by nitrate reductase based two-fold dilution assay relative to control; settings: BCG str. ATCC 35743, read-out: GI
Bacillus subtilis [8] = assay: Growth inhibition of Bacillus subtilis NCIM 2162 at 30 ug/ml measured after 12 hrs relative to control; settings: NCIM 2162, 12 h, read-out: GI
Escherichia coli [9] = assay: Antibacterial activity against Escherichia coli NCIM 2576 measured after 8 hrs; settings: NCIM 2576, 8 h
[10] = tested on: Mycobacterium tuberculosis; assay: Antitubercular activity against Mycobacterium tuberculosis H37Ra ATCC 25177 dormant stage by XTT dye based two-fold dilution method
Staphylococcus aureus [11] = assay: Growth inhibition of Staphylococcus aureus NCIM 2602 at 30 ug/ml measured after 12 hrs relative to control; settings: NCIM 2602, 12 h, read-out: GI
[12] = tested on: Mycobacterium tuberculosis; assay: Growth inhibition of Mycobacterium tuberculosis H37Ra ATCC 25177 at 10 ug/ml by XTT dye based two-fold dilution method relative to control; settings: read-out: GI
[13] = tested on: Mycobacterium tuberculosis; assay: Growth inhibition of Mycobacterium tuberculosis H37Ra ATCC 25177 at 30 ug/ml by XTT dye based two-fold dilution method relative to control; settings: read-out: GI
Pseudomonas fluorescens [14] = assay: Growth inhibition of Pseudomonas fluorescens NCIM 2059 at 1 ug/ml measured after 8 hrs relative to control; settings: NCIM 2059, 8 h, read-out: GI
Pseudomonas fluorescens [15] = assay: Antibacterial activity against Pseudomonas fluorescens NCIM 2059 measured after 8 hrs; settings: NCIM 2059, 8 h
Escherichia coli [16] = assay: Growth inhibition of Escherichia coli NCIM 2576 at 10 ug/ml measured after 8 hrs relative to control; settings: NCIM 2576, 8 h, read-out: GI
Staphylococcus aureus [17] = assay: Antibacterial activity against Staphylococcus aureus NCIM 2602 measured after 12 hrs; settings: NCIM 2602, 12 h
Pseudomonas fluorescens [18] = assay: Growth inhibition of Pseudomonas fluorescens NCIM 2059 at 10 ug/ml measured after 8 hrs relative to control; settings: NCIM 2059, 8 h, read-out: GI
Bacillus subtilis [19] = assay: Growth inhibition of Bacillus subtilis NCIM 2162 at 10 ug/ml measured after 12 hrs relative to control; settings: NCIM 2162, 12 h, read-out: GI
[20] = tested on: Mycobacterium tuberculosis; assay: Antitubercular activity against Mycobacterium bovis BCG ATCC 35743 dormant stage by nitrate reductase based two-fold dilution assay; settings: BCG str. ATCC 35743
[21] = tested on: Mycobacterium tuberculosis; assay: Growth inhibition of Mycobacterium tuberculosis H37Ra ATCC 25177 at 3 ug/ml by XTT dye based two-fold dilution method relative to control; settings: read-out: GI
Staphylococcus aureus [22] = assay: Growth inhibition of Staphylococcus aureus NCIM 2602 at 10 ug/ml measured after 12 hrs relative to control; settings: NCIM 2602, 12 h, read-out: GI
[23] = tested on: Mycobacterium tuberculosis; assay: Growth inhibition of Mycobacterium bovis BCG ATCC 35743 at 10 ug/ml by nitrate reductase based two-fold dilution assay relative to control; settings: BCG str. ATCC 35743, read-out: GI
Bacillus subtilis [24] = assay: Growth inhibition of Bacillus subtilis NCIM 2162 at 1 ug/ml measured after 12 hrs relative to control; settings: NCIM 2162, 12 h, read-out: GI

| SMILES | inhibition of growth at 30 µg/mL (Pseudomonas fluorescens [1]) [%] | inhibition of growth at 30 µg/mL (Escherichia coli [2]) [%] | inhibition of growth at 1 µg/mL (Staphylococcus aureus [3]) [%] | inhibition of growth at 30 µg/mL [4] [%] | inhibition of growth at 1 µg/mL (Escherichia coli [5]) [%] | MIC (Bacillus subtilis [6]) [µM] | inhibition of growth at 1 µg/mL [7] [%] | inhibition of growth at 30 µg/mL (Bacillus subtilis [8]) [%] | MIC (Escherichia coli [9]) [µM] | IC50 [10] [µM] | MIC90 [10] [µM] | inhibition of growth at 30 µg/mL (Staphylococcus aureus [11]) [%] | inhibition of growth at 10 µg/mL [12] [%] | inhibition of growth at 30 µg/mL [13] [%] | inhibition of growth at 1 µg/mL (Pseudomonas fluorescens [14]) [%] | MIC (Pseudomonas fluorescens [15]) [µM] | inhibition of growth at 10 µg/mL (Escherichia coli [16]) [%] | MIC (Staphylococcus aureus [17]) [µM] | inhibition of growth at 10 µg/mL (Pseudomonas fluorescens [18]) [%] | inhibition of growth at 10 µg/mL (Bacillus subtilis [19]) [%] | other results |
| --- | --- | --- | --- | --- | --- | --- | --- | --- | --- | --- | --- | --- | --- | --- | --- | --- | --- | --- | --- | --- | --- |
| Cc1nc(-c2ccccc2)oc1-c1csc(-c2ccc(Cl)cc2)n1 | 44.9 | 48.9 | 12.8 | 43 | 11.1 | > 100 | 30 | 45.7 | > 100 | > 100 | > 100 | 48.9 | 45 | 46 | 10.5 | > 100 | 25.3 | > 100 | 23.7 | 29.2 | IC50 [20]: > 100 µM; MIC90 [20]: > 100 µM; inhibition of growth at 3 µg/mL [21]: 38%; inhibition of growth at 10 µg/mL (Staphylococcus aureus [22]): 22.3%; inhibition of growth at 10 µg/mL [23]: 41%; inhibition of growth at 1 µg/mL (Bacillus subtilis [24]): 14.9% |
| Cc1nc(-c2ccc(F)cc2)oc1-c1csc(-c2ccc(Cl)cc2)n1 | 21.5 | 24.9 | 8.6 | 33 | 5.86 | > 100 | 25 | 20.5 | > 100 | > 100 | > 100 | 25.8 | 4 | 13 | 0.52 | > 100 | 10.4 | > 100 | 20.7 | 12.9 | IC50 [20]: > 100 µM; MIC90 [20]: > 100 µM; inhibition of growth at 3 µg/mL [21]: 3%; inhibition of growth at 10 µg/mL (Staphylococcus aureus [22]): 19.5%; inhibition of growth at 10 µg/mL [23]: 29%; inhibition of growth at 1 µg/mL (Bacillus subtilis [24]): 4.2% |
| Cc1ccc(-c2nc(-c3oc(-c4ccccc4)nc3C)cs2)cc1 | 30.8 | 33.8 | 5.6 | 34 | 7.19 | > 100 | 25 | 33.4 | > 100 | > 100 | > 100 | 31.5 | 15 | 17 | 2.57 | > 100 | 11.1 | > 100 | 18.6 | 15.9 | IC50 [20]: > 100 µM; MIC90 [20]: > 100 µM; inhibition of growth at 3 µg/mL [21]: 13%; inhibition of growth at 10 µg/mL (Staphylococcus aureus [22]): 14.9%; inhibition of growth at 10 µg/mL [23]: 34%; inhibition of growth at 1 µg/mL (Bacillus subtilis [24]): 3.92% |
